This assay relates to C57BL/6 mice. Nature of the assay: Mouse model of LPV (zymosan-induced vulvar allodynia), topical Maresin 1. Type of assay: in vivo. As to conditions: topical 1 μg/mouse/day, daily for 4 weeks. The text has this: FIG. 9 is a diagram showing that PGE2 in vaginal lavage is associated with pain threshold. After induction of allodynia for up to 6 weeks (indicated by reduced pain threshold, red line), Maresin 1 was applied to C57BL/6 mouse vulvas to reduce pain and increase pain threshold. PGE2 content in vaginal lavage samples (blue line) rapidly increases during the induction phase, indicating pain-associated inflammation waning with treatment. SEM shown, n=8.
In the mouse model, zymosan (a proinflammatory yeast cell wall preparation) was used to induce sustained vulvar allodynia, measured by pain threshold testing. […]
Using this approach, inventors confirmed that one could induce vulvar allodynia, measure pain responses via mechanical threshold determination, and assess treatment responses. However, inventors implemented several modifications to improve the robustness of the model including the following: 1) use a genetically tractable inbred strain, 2) validation of the use of an electronic von Frey (EvF) system, 3) assessment of the impact of behavioral conditioning on pain response, 4) weekly collection of vulvovaginal lavages for proinflammatory mediator quantification, and 5) testing the ability of a selected SPM (e.g., Maresin 1) to modulate pain and inflammation in our new model. […]

Data on one compound can be found in US20220040136A1, “TREATMENT OF VULVOVAGINAL DISORDERS” (University of Rochester, priority 2018, published 2022).

Take `CC/C=C\C/C=C\C[C@H](O)\C=C/C=C/C=C/[C@H](O)C/C=C\CCC(=O)O` [Maresin 1, 7R,14S-docosa-4Z,8E,10E,12Z,16Z,19Z-hexaenoic acid]: the “PGE2 levels in vaginal lavage” value was “suppressed and maintained at levels below baseline”. The “pain threshold (electronic von Frey)” value (after allodynia induction) is listed as “complete restoration to the pre-induction thresholds”.
